# “Also recorded” adds a separate entry of the source. Ends that are not written are not given here.
# What was measured:
# [1] = tested on: cultured hippocampal slices; experiment: Aβ1–42 uptake/internalization in cultured hippocampal slices (Aβ1–42 immunocytochemistry, NIH Image quantification); assay type: cell-based, Sprague-Dawley rat; conditions: for slices with intraneuronal Aβ1–42 immunostaining: Aβ1–42 plus antagonist (GRGDSP 2 mM; echistatin 2 μM); for number of Aβ-ir particles within the sample field / size (average area) of individual Aβ-ir particles / total area encompassed by Aβ-ir elements: CA1b stratum pyramidale; for number of Aβ-ir particles within the sample field: Aβ1–42 plus antagonist vs Aβ alone (FIG. 4G), significant for GRGDSP only; for size (average area) of individual Aβ-ir particles / total area encompassed by Aβ-ir elements: Aβ1–42 plus antagonist; for size (average area) of individual Aβ-ir particles: mean±sem relative to Aβ alone (FIG. 4E); for total area encompassed by Aβ-ir elements: mean±sem relative to Aβ alone (FIG. 4F); for effect on sequestration/uptake/internalization of Aβ1–42: co-incubated with Aβ1–42, 6 days, GRGDSP and GRADSP 2 mM, echistatin 2 μM
# Experimental: (§1) Organotypic hippocampal cultures were prepared using the technique of Stoppini et al. (1991). Briefly, hippocampi were harvested from brains of 9–12 days old Sprague-Dawley rat pups under sterile conditions. Sections were cut (400 μm thick) perpendicular to the long axis of hippocampus using a Mclllwain tissue chopper and were collected into a cutting medium consisting of MEM with Earle's salts (Gibco, Rockville Md.), 25 mM HEPES, 10 mM Tris base, 10 mM glucose, and 3 mM MgCl2 (pH 7.2). Slices were positioned onto 30 mm cell culture inserts (Millicell-CM, Millipore, Bedford, […].) that were placed in 6 well culture trays with 1 ml of growth medium per well [growth medium: MEM with Hank's salts (Gibco), 20% horse serum, 3 mM glutamine, 25 mM HEPES, 5 mM NaHCO3, 25 mM glucose, 0.5 mM ascorbate, 2 mM CaCl2, 2.5 mM MgCl2, 0.5 mg/1 insulin, and penicillin, pH 7.2]. The cultures were incubated at 35° C. with a 5% CO2-enriched atmosphere and the media was changed every other day until use 10–12 days later.
# (§2) Cultured hippocampal slices were exposed to media containing the human Aβ1–42 sequence in the presence or absence of the integrin antagonist peptide, Gly-Arg-Gly-Asp-Ser-Pro, or GRGDSP (SEQ. ID. No.3) (2 mM dissolved in media) (Ruoslahti, E., Ann Rev Cell Dev Biol 12:697–715 (1996)). In some cases, slices were co-treated with the specific NMDA receptor antagonist 2-amino-5-phosphonovalerate (AP5) (Sigma) at 50 μM. Control slices in neighboring wells received media-vehicle only. Aβ1–42 peptide solution was freshly prepared before the start of the experiment using 0.1N NaOH, pH adjusted with 0.1N HCl to 7.4, and then diluted with serum-free culture medium. Aβ was applied at 30 μM for 8–10 hr after which it was diluted to 15 μM by the addition of fresh culture media containing heated treated horse serum. Treatment was repeated every other day for a total 6 days. Disintegrins are small (4–10 kDa) RGD-containing, cysteine-rich peptides from snake venom that bind integrins with high affinity (Kd˜1 nM–0.1 μM) and are potent antagonists of integrin functions (Huang, T. F., Cell Mol Life Sci 54:527–540 (1998)for review). In some experiments the disintegrin echistatin (2 μM dissolved in media) was applied instead of GRGDSP (SEQ. ID. No.3).
# (§3) The following treatment, slices were thoroughly washed with 0.1M sodium phosphate buffered saline (PBS), fixed for 12–16 hr in cold 0.1M phosphate buffer (PB; pH 7.2) containing 4% paraformaldehyde, cryoprotected in 20% sucrose/PB for 1–2 hr and then carefully removed from the insert membranes. Serial sections were cut at 25 μm thick, parallel to the broad face of the explant, using a freezing microtome. Immunocytochemistry was performed using the standard avidin biotin horseradish peroxidase complex (ABC) method using reagents and instructions of the VECTASTAIN® Elite ABC kit from Vector Laboratories (Burlingame, Calif.) with diaminobenzidine tetrahydrochloride (0.05% in 50 mM Tris-HCl buffer, pH 7.4) as chromagen and PBS for rinses and as diluent for antibody incubations. Briefly, free-floating sections were preincubated with 3% normal goat serum (for anti-Aβ1–42 and anti-cathepsin D antibodies) or 10% normal horse serum (for ED-1) in PBS for 1 hr at room temperature. […] Sections were washed in PBS, incubated in biotinylated anti-rabbit or anti-mouse IgG (both at 1:200) for 2–3 hr, washed in PBS, incubated in the avidin-biotin complex solution for 45 min and then processed through the diaminobenzidine reaction. After final rinses in PBS, sections were mounted on SuperFrost Plus slides (Fisher Scientific, Pittsburgh), air-dried, dehydrated in a series of graded ethanols, and coverslipped from Clearing Solvent (Stephens Scientific, Kalamazoo, Mich.) with Permount (Fisher).
# Images centered on CA1b stratum pyramidale were obtained at 40× objective magnification using a Sony DKC-5000 digital camera attached to a Zeiss Universal microscope. […]
# [2] = tested on: reactive microglia; experiment: Microglial activation (ED-1 immunoreactivity) in cultured hippocampal slices; assay type: cell-based, Sprague-Dawley rat; conditions: for number of ED-1 positive cells: treatment by itself; for effect on ED-1-ir microglia: 50 μM AP5 with Aβ1–42 and 2 mM GRGDSP, 6 days
# Experimental: as §1, §2
# as §3, with “After final rinses in PBS, sections were mounted on SuperFrost Plus slides (Fisher Scientific, Pittsburgh), air-dried, dehydrated in a series of graded ethanols, and coverslipped from Clearing Solvent (Stephens Scientific, Kalamazoo, Mich.) with Permount (Fisher).” left out
# [3] = tested on: cathepsin D; experiment: Cathepsin D immunoreactivity in cultured hippocampal slices; assay type: cell-based, Sprague-Dawley rat
# Experimental: as §1, §2
# The following treatment, slices were thoroughly washed with 0.1M sodium phosphate buffered saline (PBS), fixed for 12–16 hr in cold 0.1M phosphate buffer (PB; pH 7.2) containing 4% paraformaldehyde, cryoprotected in 20% sucrose/PB for 1–2 hr and then carefully removed from the insert membranes. Serial sections were cut at 25 μm thick, parallel to the broad face of the explant, using a freezing microtome. […]
# [4] = tested on: LTP stabilization in field CA1 of hippocampus; conditions: injection of 5 μM echistatin; Chun et al., 2001; cited from earlier work
# [5] = tested on: CHO cells; conditions: CHO cells in culture; Matter et al. 1998; cited from earlier work
# [6] = tested on: integrin binding to fibronectin and vitronectin; conditions: literature; used as inactive control peptide; cited from earlier work
# [7] = biological target: RGD-binding integrins; experiment: cell-based or functional assay
# [8] = treatment alone, 6 days, count of slices with Aβ-ir out of number of slices tested (Aβ 45, RGD 14)
# [9] = treatment alone, 6 days (GRGDSP 2 mM)
# [10] = Aβ + antagonist co-incubation, 6 days, count out of slices tested (61, 16, 21, 16), RGD and RAD 2 mM, Ech 2 μM
# [11] = 50 μM AP5 with Aβ1–42 and 2 mM GRGDSP, 6 days
molecule,measurement,setting,value
"Aβ1–42: human amyloid beta peptide, 42-residue form, applied exogenously to slices",slices with intraneuronal Aβ1–42 immunoreactivity (Aβ-ir),"[1]; Aβ1–42 alone, 6 days",42%
same,Aβ positive cases,[1]; [8],19
same,number of ED-1 positive cells,[2],did not cause a noticeable increase in the number of ED-1 positive cells
same,cathepsin D-ir,[3]; [9],did not cause substantial increases in cathepsin D-ir
echistatin (QCESGPCCRNCKFLKEGTICKRARGDDMDDYCNGKTCDCPRNPHKGPAT),effect on LTP stabilization,[4],selectively disrupts LTP stabilization
same,slices with intraneuronal Aβ1–42 immunostaining,[1]; 6 days,86%
same,Aβ positive cases,[1]; [10],18
same,number of Aβ-ir particles within the sample field,[1],increased the numbers of Aβ-ir particles
same,size (average area) of individual Aβ-ir particles,[1],+95±13%
same,total area encompassed by Aβ-ir elements,[1],233±24%
same,effect on sequestration/uptake/internalization of Aβ1–42,[1],significantly enhanced Aβ internalization; also recorded: increased the uptake of Aβ1–42 peptide
Gly-Arg-Gly-Asp-Ser-Pro [GRGDSP],slices with intraneuronal Aβ1–42 immunostaining,[1]; 6 days,More than 88%
same,number of Aβ-ir particles within the sample field,[1],increased the numbers of Aβ-ir particles
same,size (average area) of individual Aβ-ir particles,[1],+101±13%
same,total area encompassed by Aβ-ir elements,[1],324±16%
same,effect on sequestration/uptake/internalization of Aβ1–42,[1],markedly increase sequestration of the exogenous peptide; also recorded: markedly enhances uptake in cultured hippocampal slices; also recorded: enhanced; also recorded: increased the uptake of Aβ1–42 peptide
same,induction of Aβ-ir,"[1]; peptide by itself, without Aβ1–42",did not induce Aβ-ir
same,Aβ positive cases,[1]; [8],0
same,microglial response (ED-1-ir),[2]; Aβ1–42 and GRGDSP applied together,produced a pronounced microglial response
same,number of ED-1 positive cells,[2],did not cause a noticeable increase in the number of ED-1 positive cells
same,cathepsin D-ir,"[3]; Aβ1–42 plus 2 mM GRGDSP, 6 days",generated intense intraneuronal cathepsin D-ir; also recorded: elevated
same,cathepsin D-ir,[3]; [9],did not increase cathepsin D-ir
same,effect on binding and uptake of Aβ,[5],block the binding and uptake of Aβ in CHO cells
"NC(CCCP(=O)(O)O)C(=O)O (stereo not shown) [AP5, 2-amino-5-phosphonovalerate]",effect on GRGDSP-enhanced Aβ1–42 uptake,[1]; [11],completely blocked Aβ1–42 uptake; also recorded: completely eliminated Aβ uptake
same,effect on ED-1-ir microglia,[2],ED-1-ir (C′) to vehicle control levels
same,effect on ED-1-ir microglia,[2]; listed as AP-5,greatly reduced
same,effect on cathepsin D-ir,[3]; [11],almost totally suppressed; also recorded: suppressed cathepsin D-ir
GRADSP,antagonism of integrin binding to fibronectin and vitronectin,[6],very weak antagonist
same,Aβ positive cases,[1]; [10],9
same,number of Aβ-ir particles within the sample field,[1],did not cause significant changes
same,size (average area) of individual Aβ-ir particles,[1],did not cause significant changes
same,total area encompassed by Aβ-ir elements,[1],did not cause significant changes
same,effect on sequestration/uptake/internalization of Aβ1–42,[1],did not measurably affect sequestration of Aβ1–42; also recorded: modest
GRADSP [inactive control peptide Gly-Arg-Ala-Asp-Ser-Pro (GRADSP)],"Aβ positive cases (slices with intraneuronal Aβ1-42 immunoreactivity), Aβ + RAD, of 16 slices tested (slices (of 16 tested))",[7],9
GRGDSP [integrin antagonist peptide Gly-Arg-Gly-Asp-Ser-Pro (GRGDSP)],"Aβ positive cases (slices with intraneuronal Aβ1-42 immunoreactivity), Aβ + RGD, of 61 slices tested (slices (of 61 tested))",[7],54
same,"increase in size (mean area) of Aβ-ir elements in CA1 stratum pyramidale, relative to Aβ alone",[7],101%
same,"total area encompassed by Aβ-immunoreactive elements, relative to Aβ alone",[7],324%
